Laboratory results published in article PMC9247001, “Ligand-induced structural transitions combined with paramagnetic ions facilitate unambiguous NMR assignments of methyl groups in large proteins” (Journal of Biomolecular Nmr, 2022).
Where two headings read alike, the source gives them in different places.

Experiments:
[1] = 1H NMR titration of di- and trivalent metals over UTP (KD1); type: binding; conditions: metal 0-1400 µM, UTP 239.2 or 250 µM, 293 K, 600 MHz, read-out: KD1, dissociation constant for the interaction of UTP with di- and trivalent metals
UTP:LmUGP complex = test: Four-states binding model, metal binding to UTP in complex with LmUGP (KD4); design: species or system Leishmania major; conditions: approximated by nonlinear least-squares minimization of the four-states model from KD1-3
[2] = design: method as in Zea et al. [2008]; conditions: isothermal titration calorimetry; ref Zea et al. [2008]; read-out: KD1, dissociation constant for the interaction of UTP with divalent metals (converted); cited from earlier work

Row | Compound | Kd [1] [µM] | Kd (UTP:LmUGP complex) [µM] | Kd [2] [µM]
1 | [Cl][La]([Cl])[Cl] [LaCl3] | 11 ± 5 | 15 ± 7 | 
2 | [Cl][Mn][Cl] [MnCl2] |  |  | 77 ± 12
3 | [Cl-].[Cl-].[Mg+2] [MgCl2] | 82 ± 6 | 115 ± 10 | 70
4 | [Cl][Ce]([Cl])[Cl] [CeCl3] | 13 ± 4 | 17 ± 5 | 
5 | [Cl][Lu]([Cl])[Cl] [LuCl3] | 38 ± 17 | 46 ± 21 | 
6 | [Cl][Eu]([Cl])[Cl] [EuCl3] | 28 ± 9 | 38 ± 12 | 
